We go through seven compounds from patent US12344610B2, “APOL1 inhibitors and methods of use” (Maze Therapeutics, Inc., priority 2022, dated 2025).

Molecules are shown by their SMILES. Read-outs that look alike come from different tables or passages of the source.

Holding throughout (format): cell-based
Settings in all cases: geometric mean of at least 2 assay runs, † = single assay run

In assay [1] the test system is Trypanosoma brucei Lister 427 VSG221 with APOL1 G2 recombinant protein. Briefly: APOL1 G2 trypanosome cell rescue assay (Example B5). Summed up:
(§1)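 Compounds in duplicate 2-fold, 11-point series with 0.4% DMSO final. Next, tag-free mature APOL1 variant protein went in from a 2 μg/mL solution, then trypanosomes to 250 per well. Plates incubated 20 h humidified at 37° C, equilibrated to room temperature, and CellTiter-Glo added for luminescence.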

In assay [2] the test system is HEK293 cells overexpressing APOL1 G2. Briefly: APOL1 G2 HEK293 cell rescue assay (reversal of cell death caused by overexpression of APOL1). Summed up:
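EC50 is the half-maximal effective concentration for reversing cell death driven by APOL1 G2 overexpression in HEK293 cells. Reported as geometric mean of at least 2 runs on separate days, each run averaging duplicate wells per plate; some values from a single run.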

For assay [3], the system named is Trypanosoma brucei Lister 427 VSG221 with APOL1 G1 recombinant protein. The experiment in a line: APOL1 G1 trypanosome cell rescue assay (Example B5). In short, it runs like this: as §1
The mark [4] stands for this setting: read-out: APOL1 G2 Trypanosome Rescue EC50, Trypanosoma brucei Lister 427 VSG221 with APOL1 G2 recombinant protein, 20 hours, CellTiter-Glo.
[5] abbreviates: read-out: APOL1 G1 Trypanosome Rescue EC50, Trypanosoma brucei Lister 427 VSG221 with APOL1 G1 recombinant protein, 20 hours, CellTiter-Glo.
Where [6] appears, read: Trypanosoma brucei, 20 h, read-out: APOL1 G2 Trypanosome Rescue EC50, Trypanosoma brucei Lister 427 VSG221 with APOL1 G2 recombinant protein, 20 hours, CellTiter-Glo.
[7] abbreviates: Homo sapiens, HEK293, HEK293 overexpressing APOL1 G2.
Where [8] appears, read: Trypanosoma brucei, 20 h, read-out: APOL1 G1 Trypanosome Rescue EC50, Trypanosoma brucei Lister 427 VSG221 with APOL1 G1 recombinant protein, 20 hours, CellTiter-Glo.

In the case of `CS(=O)(=O)C1(c2ccc(OCCN3CCC4(CC3)C(=O)Nc3ccc(Cl)cc34)cc2)CC(O)C1` (stereo not drawn) [Compound 270, 5-chloro-1′-(2-{4-[(trans) or (cis)-3-hydroxy-1-methanesulfonylcyclobutyl]phenoxy}ethyl)-1,2-dihydrospiro[indole-3,4′-piperidin]-2-one], the EC50 turned out to be 25.3 nM in assay [1] (setting [4]), 25.6 nM in assay [2] (HEK293 overexpressing APOL1 G2) and 82.2 nM in assay [3] (setting [5]).

For the compound `CC(c1ncc(OCCN2CCC3(CC2)C(=O)Nc2ccc(Cl)cc23)cn1)S(C)(=O)=O` (single isomer, unassigned) [Compound 2, 5-chloro-1′-[2-({2-[(1S) or (1R)-1-methanesulfonylethyl]pyrimidin-5-yl}oxy)ethyl]-1,2-dihydrospiro[indole-3,4′-piperidin]-2-one], the EC50 in assay [1] (setting [6]) stood at 56.3 nM; in assay [2] (setting [7]), 134 nM; in assay [3] (setting [8]) it was 191 nM.

On to `CS(=O)(=O)C1(c2ncc(OCCN3CCC4(CC3)C(=O)Nc3ccc(C(F)F)cc34)cn2)CC1` [Compound 5, 5-(difluoromethyl)-1′-(2-{[2-(1-methanesulfonylcyclopropyl)pyrimidin-5-yl]oxy}ethyl)-1,2-dihydrospiro[indole-3,4′-piperidin]-2-one], for which the concentration for a half-maximal effect (EC50) was 52 nM in assay [1] (setting [6]), 213 nM in assay [2] (setting [7]) and 171 nM in assay [3] (setting [8]).

Regarding `CS(=O)(=O)c1c(F)cc(OCCN2CCC3(CC2)C(=O)Nc2ccc(C#N)cc23)cc1F` [Compound 90, 1′-[2-(3,5-difluoro-4-methanesulfonylphenoxy)ethyl]-2-oxo-1,2-dihydrospiro[indole-3,4′-piperidine]-5-carbonitrile], the values for the EC50 in assay [1] (setting [6]), in assay [2] (setting [7]) and in assay [3] (setting [8]) were 163 nM, 151 nM and 679 nM, respectively.

With `CC(c1ncc(OCCN2CCC3(CC2)C(=O)Nc2ccc(Cl)cc23)cn1)S(C)(=O)=O` (single isomer, unassigned) [Compound 3, 5-chloro-1′-[2-({2-[(1R) or (1S)-1-methanesulfonylethyl]pyrimidin-5-yl}oxy)ethyl]-1,2-dihydrospiro[indole-3,4′-piperidin]-2-one], the values for the EC50 in assay [1] (setting [4]), in assay [2] (HEK293 overexpressing APOL1 G2) and in assay [3] (setting [5]) were 92 nM, 142 nM and 323 nM, respectively.

For the compound `CN1C(=O)CCc2cc(OCCN3CCC4(CC3)C(=O)Nc3ccc(C#N)cc34)ccc21` [Compound 95, 1′-{2-[(1-methyl-2-oxo-1,2,3,4-tetrahydroquinolin-6-yl)oxy]ethyl}-2-oxo-1,2-dihydrospiro[indole-3,4′-piperidine]-5-carbonitrile], the results for the EC50 in assay [1] (setting [6]), in assay [2] (setting [7]) and in assay [3] (setting [8]) were 222 nM, 246 nM and 703 nM, respectively.

For `CC(C)N1C(=O)CCc2cc(OCCN3CCC4(CC3)C(=O)Nc3ccc(Cl)cc34)ccc21` [Compound 97, 5-chloro-1′-(2-{[2-oxo-1-(propan-2-yl)-1,2,3,4-tetrahydroquinolin-6-yl]oxy}ethyl)-1,2-dihydrospiro[indole-3,4′-piperidin]-2-one], the results for the EC50 in assay [1] (setting [6]), in assay [2] (setting [7]) and in assay [3] (setting [8]) were 40.6 nM, 44.6 nM and 98.4 nM, respectively.
